Laboratory results published in patent US8383880B2, “Infertility control of genetically modified fish” (Academia Sinica, priority 2009, dated 2013).

Experiments:
[1] = tested on: AB strain zebrafish embryos; assay: Tolerable concentration of Mtz for zebrafish (consecutive immersion of embryos); format: in vivo; conditions: for larvae dead: at 5 dpf
Description: In order to determine the tolerable concentration of Mtz for zebrafish, AB strain zebrafish embryos at the single-cell stage were incubated at 28° C. in a range of Mtz concentrations (0-20 mM). We observed obvious abnormal development of larvae at 3 days postfertilization (dpf). The larvae were dead at 5 dpf after consecutive immersions in […] Mtz (100%, n=26/26) and 20 mM Mtz (100%, n=30/30). The nonspecific death of the larvae was first observed at 6 dpf after consecutive immersions in 10 mM Mtz (23%, n=7/30). In contrast, we observed that no larvae died after at least 10 dpf of consecutive immersion in 5 mM Mtz (0%, n=30). Therefore, the optimal Mtz concentration used in the present experiment was 5 mM.

[2] = tested on: 14 dpf transgenic embryos; assay: Metronidazole dependent cell ablation, dose response in ablating gonad; format: in vivo, zebrafish; conditions: 5 mM Met, 14 dpf larvae
Description: Metronidazole (Met, M3761, Sigma) was dissolved in a standard zebrafish embryo medium with vigorous agitation. Embryos were incubated at 28° C. in the dark, and 14-21 dpf transgenic embryos were used to study the dose response of Met in ablating gonad. In initial studies, 14 dpf embryos were incubated in a range of Met concentrations (1-10 mM).

Tg(AO-eGFP:Ntr) = assay: Fertility assessment, compound transgenic line; format: in vivo, zebrafish; conditions: Tg(AO-EGFP:Ntr) females, 5 mM Met every other day for 1 week
Description: (§1) To generate compound transgenic lines, the homozygous transgenic zebrafish of each line, Tg(Asp-eGFP:Ntr), Tg(Odf-eGFP:Ntr), and Tg(Sam-eGFP:Ntr), were then crossed with each other to generate double transgenic fish, Tg(AO-eGFP:Ntr)[Tg(Asp-eGFP:Ntr);Tg(Odf-eGFP:Ntr)], Tg(AS-eGFP:Ntr)[Tg(Asp-eGFP:Ntr);Tg(Sam-eGFP:Ntr)], and Tg(OS-eGFP:Ntr)[Tg(Odf-eGFP:Ntr);Tg(Sam-eGFP:Ntr)] and triple-transgenic fish, Tg(AOS-eGFP:Ntr)[Tg(Asp-eGFP:Ntr; Odf-eGFP:Ntr;Sam-eGFP:Ntr)] for experiments. RT-PCR was performed to test the expression of eGFP:Ntr in the testes of all lines. Animals from each cross were divided into four groups based on genotype. The four groups were then used to assess fertility in response to Met administration.
(§2) Fertility was assessed by pairing each heterozygous transgenic fish with a WT mate. At least 20 transgenic fish were tested for each line, and the numbers of fertile zebrafish were compared with wild-type fish. Each male was assessed with multiple females. Zebrafish were labeled infertile if they were unable to produce offspring over a 4-month period.
(§3) After establishing breeding colonies of these three transgenic lines, Tg(Asp-eGFP:Ntr), Tg(Odf-eGFP:Ntr), and Tg(Sam-eGFP:Ntr), it became clear that the male transgenic fish were at intermediate levels of infertility while the female transgenic fish remained fertile after Met treatment. None of the Met-treated adult males crossed with wild-type females were fully successful in spawning fertilized eggs (Table 1). […] To reach high or full (100%) levels of male infertility in Met-treated transgenic zebrafish lines, we generated compound transgenic lines, Tg(AO-eGFP:Ntr), Tg(AS-eGFP:Ntr), Tg(OS-eGFP:Ntr), and Tg(AOS-eGFP:Ntr) by crossing each other of Tg(Asp-eGFP:Ntr), Tg(Odf-eGFP:Ntr), and Tg(Sam-eGFP:Ntr), then examined male infertility after Met treatment (Table 2). At 4 months of age, Met-treated compound transgenic males had three mediate (76.4%), intermediate high (85.7%), high (95.0%), and full (100%) levels of infertility for Tg(OS-eGFP:Ntr), Tg(AO-eGFP:Ntr), Tg(AS-eGFP:Ntr), and Tg(AOS-eGFP:Ntr), respectively. Met-treated compound transgenic females crossed with wild-type zebrafish remained fertile. No gross abnormalities were apparent in any of the Met-untreated compound transgenic zebrafish lines or Met-treated double transgenic females.

Tg(AOS-eGFP:Ntr) = assay: Fertility assessment, compound transgenic line; format: in vivo, zebrafish
Description: as §1, §2, §3

Tg(AS-eGFP:Ntr) = assay: Fertility assessment, compound transgenic line; format: in vivo, zebrafish; conditions: Tg(AS-EGFP:Ntr) females, 5 mM Met every other day for 1 week
Description: as §1, §2, §3

Tg(OS-eGFP:Ntr) = assay: Fertility assessment, compound transgenic line; format: in vivo, zebrafish; conditions: Tg(OS-EGFP:Ntr) females, 5 mM Met every other day for 1 week
Description: as §1, §2, §3

Tg(Asp-eGFP:Ntr) = assay: Fertility assessment; format: in vivo, zebrafish
Description: as §2
(§4) To assess the fertility of Met-treated transgenic zebrafish lines, Tg(Asp-eGFP:Ntr), Tg(Odf-eGFP:Ntr), and Tg(Sam-eGFP:Ntr) lines were crossed with wild-type zebrafish (100-200 eggs per line; three mating pairs per line). The reproductive parameters were compared with wild-type pairs of the same strain (100-200 eggs per five mating pairs). […] In fact, the infertility of Met-treated Tg(Asp-eGFP:Ntr) transgenic males mated with wild-type female fish increased by over 68.0% compared to that of wild-type. […] However, Met-treated transgenic female lines remained fertile as wild-type female.
as §3

Tg(Odf-eGFP:Ntr) = assay: Fertility assessment; format: in vivo, zebrafish
Description: as §2, §4, §3

Wild type = assay: Fertility assessment; format: in vivo, zebrafish; conditions: 5 mM Met every other day for 1 week; for Female infertility, Met+: Wild type females; for Male infertility, Met+: Wild type males
Description: as §2, §4, §3

Tg(Sam-eGFP:Ntr) = assay: Fertility assessment; format: in vivo, zebrafish
Description: as §2, §4, §3

Cc1ncc([N+](=O)[O-])n1CCO [Mtz]
larvae dead ([1]; 15 nM Mtz, n=26/26): 100% | larvae died ([1]; 5 mM Mtz, at least 10 dpf, n=30): 0% | nonspecific death of the larvae ([1]; 10 mM Mtz, first observed at 6 dpf, n=7/30): 23% | larvae dead ([1]; 20 mM Mtz, n=30/30): 100% | deleterious effects on larvae [2]: no deleterious effects | Female infertility, Met+ (Tg(AO-eGFP:Ntr)): 0/35 (0%) | Female infertility, Met+ (Tg(AOS-eGFP:Ntr); Tg(AOS-EGFP:Ntr) females, 5 mM Met every other day for 1 week): 0/38 (0%) | lethality in male triple-transgenic fish (Tg(AOS-eGFP:Ntr); male Tg(AOS-eGFP:Ntr), 5 mM Met treatment for 1 week, listed as Met): occasionally died | Female infertility, Met+ (Tg(AS-eGFP:Ntr)): 0/40 (0%) | Female infertility, Met+ (Tg(OS-eGFP:Ntr)): 0/34 (0%) | infertility increased compared to that of wild-type (Tg(Asp-eGFP:Ntr); Met-treated Tg(Asp-eGFP:Ntr) males mated with wild-type female): over 68.0% | Female infertility, Met+ (Tg(Asp-eGFP:Ntr); Tg(Asp-EGFP:Ntr) females, 5 mM Met every other day for 1 week): 0/25 (0%) | Male infertility, Met+ (Tg(Asp-eGFP:Ntr); Tg(Asp-EGFP:Ntr) males, 5 mM Met every other day for 1 week): 17/25 (68.0%) | infertility increased compared to that of wild type (Tg(Odf-eGFP:Ntr); Met-treated Tg(Odf-eGFP:Ntr) males mated with wild-type female): over 59.1% | Female infertility, Met+ (Tg(Odf-eGFP:Ntr); Tg(Odf-EGFP:Ntr) females, 5 mM Met every other day for 1 week): 0/22 (0%) | Male infertility, Met+ (Tg(Odf-eGFP:Ntr); Tg(Odf-EGFP:Ntr) males, 5 mM Met every other day for 1 week): 13/22 (59.1%) | Female infertility, Met+ (Wild type; Table 1 (n=28)): 0/28 (0%) | Female infertility, Met+ (Wild type; Table 2 (n=30)): 0/30 (0%) | Male infertility, Met+ (Wild type; Table 1 (n=28)): 0/28 (0%) | Male infertility, Met+ (Wild type; Table 2 (n=30)): 0/30 (0%) | infertility increased compared to that of wild type (Tg(Sam-eGFP:Ntr); Met-treated Tg(Sam-eGFP:Ntr) males mated with wild-type female): > 54.1% | Female infertility, Met+ (Tg(Sam-eGFP:Ntr); Tg(Sam-EGFP:Ntr) females, 5 mM Met every other day for 1 week): 0/24 (0%) | Male infertility, Met+ (Tg(Sam-eGFP:Ntr); Tg(Sam-EGFP:Ntr) males, 5 mM Met every other day for 1 week): 13/24 (54.1%)
